According to PubChem BioAssay AID2060484 (Molecular Pharmacology Branch, DTP, NCI, 2025):

Test system: SUM149PT spheroids with HUVEC/MSC, viability
Experiment: Anticancer human tumor SUM149PT cell line growth inhibition [GQUAD];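 note: spheroids exposed to drugs for seven days before readout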;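 for viability, T/C: percent viability relative to DMSO vehicle control taken as 100%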
Conditions: for IC50: curve of first compound; for viability, T/C: stronger effect = lower value
Source text: DNA G-quadruplex Stabilizer Agents in Combinations in Complex Spheroids
A high-throughput screen of multi-cell type tumor spheroids was designed to identify active combinations of DNA G-quadruplex stabilizer agents and targeted small molecules. Complex spheroids include a stromal component modeled by human endothelial cells (HUVEC) and fibroblasts modeled by human mesenchymal stem cells (MSCs). The concentration ranges selected for each drug and investigational agent were based upon clinically achievable concentrations if the clinical Cmax of the agent was known.
Compounds. The drugs and investigational agents: pidnarulex (CX-5461; NSC782164), APTO-253 (NSC789042), BRACO-19 (NSC847499), peposertib (NSC802822), ceralasertib (NSC780249), elimusertib (NSC800525), camonsertib (NSC841442), AZD-1390 (NSC803789), olaparib (NSC753686), talazoparib (NSC767125), ART-558 (NSC835418), sotorasib (NSC818433), MRTX-1133 (NSC836407), SN-38 (NSC673596), topotecan (NSC609699), etoposide (NSC141540), doxorubicin (NSC123127), gemcitabine (NSC613327), 5-fluorouracil (NSC19893), paclitaxel (NSC125973), vemurafenib (NSC761431), panobinostat (NSC761190), R-306465 (JNJ-16241199; NSC773264), adavosertib (NSC754352), TP-3654 (NSC805149), carboplatin (NSC241240), KSQ-4279 (NSC840948), and staurosporine (NSC755774) were obtained from the National Cancer Institute (NCI) Developmental Therapeutics Program Chemical Repository (34). The FDA-approved anticancer drug set is available from the NCI Developmental Therapeutics Program. […] The stock solutions were prepared in dimethyl sulfoxide (DMSO, Sigma-Aldrich, St. Louis, MO, cat. D2650) at 800-fold the tested concentration and stored at -70 degrees C prior to their use. All drugs and investigational agents were tested over a range starting from a high concentration at or near the clinical Cmax and decreasing in half-log increments. If the clinical Cmax for an agent had not been determined, the highest concentration tested was 10 microM.
2.3 Cell Culture. All cells were maintained in an incubator at 37 degrees C and 5% CO2 with 95% humidity. The PDC lines were cultured according to standard operating procedures established by the NCI PDMR. All PDCs were thawed and cultured in Matrigel-coated flasks prepared with a working solution of 1X Ham's F-12 nutrient mix, without supplementation (Invitrogen, cat. 11765054), 100 U/mL penicillin-streptomycin (Invitrogen, cat. 15140122), and 2.5% Matrigel (Corning Inc., cat. 354248) for the first three passages. The 857933-349-R-J2-PDC line was cultured in 6C/Colon 1B media, which includes advanced DMEM/F-12 (Thermo Fisher Scientific, cat. 12634028), 10 mM HEPES (Thermo Fisher Scientific, cat. 15630080), 1X GlutaMAX supplement (Thermo Fisher Scientific, cat. 35050061), 0.1 mg/mL primocin (InvivoGen, cat. ant-pm-2), 10% defined fetal bovine serum, heat inactivated (HyClone Laboratories Inc., cat. SH30070.03HI), 50% L-WRN conditioned media (ATCC, cat. CRL-3276), 1.25 mM N-Acetyl-L-cysteine (Sigma-Aldrich, cat. A9165), 10 mM nicotinamide (Sigma-Aldrich, cat. N0636), 1X B-27 supplement (Thermo Fisher Scientific, cat. 17504044), 1X N-2 supplement (Thermo Fisher Scientific, cat. 17502048), 10 microM Y-27632 dihydrochloride (Tocris Bioscience, cat. 1254), and 50 ng/mL human EGF recombinant protein (Thermo Fisher Scientific, cat. PHG0311). The 485176-168-R4-J1-PDC line was cultured in Panc media, which includes all 6C/Colon 1B media components plus 100 ng/mL human FGF-10 (Thermo Fisher Scientific, cat. 100-26), 500 nM SB-431542 (Selleckchem, cat. S1067), and gastrin (Tocris, cat. 3006).
[…]

With CCc1c2c(nc3ccc(O)cc13)-c1cc3c(c(=O)n1C2)COC(=O)[C@]3(O)CC + Cc1[nH]c2ccc(F)cc2c1-c1nc2c3cccnc3c3ncccc3c2[nH]1 the IC50 (second compound 0.0316 µM) was 2.34 nM, the IC50 (second compound 0.1 µM) was 2.58 nM and the IC50 (second compound 0.316 µM) was 1.88 nM. For the same molecule, the IC50 (second compound 1 µM) was 2.3 nM, the IC50 (second compound 3.16 µM) was 1.54 nM and the IC50 (second compound 10 µM) was < 0.999 nM. For the same molecule, the viability, T/C (second compound 0.0316 µM, first compound 0.000999 µM) was 67.2%, the viability, T/C (second compound 0.0316 µM, first compound 0.00316 µM) was 34.9% and the viability, T/C (second compound 0.0316 µM, first compound 0.00999 µM) was 43.4%. For the same molecule, the viability, T/C (second compound 0.0316 µM, first compound 0.0316 µM) was 34.7%, the viability, T/C (second compound 0.0316 µM, first compound 0.0999 µM) was 32.4% and the viability, T/C (second compound 0.0316 µM, first compound 0.316 µM) was 18.2%. For the same molecule, the viability, T/C (second compound 0.1 µM, first compound 0.000999 µM) was 69.1%, the viability, T/C (second compound 0.1 µM, first compound 0.00316 µM) was 32.6% and the viability, T/C (second compound 0.1 µM, first compound 0.00999 µM) was 45.4%. For the same molecule, the viability, T/C (second compound 0.1 µM, first compound 0.0316 µM) was 34.2%, the viability, T/C (second compound 0.1 µM, first compound 0.0999 µM) was 27.8% and the viability, T/C (second compound 0.1 µM, first compound 0.316 µM) was 16.8%. The viability, T/C (second compound 0.316 µM, first compound 0.000999 µM) was 61.4%, the viability, T/C (second compound 0.316 µM, first compound 0.00316 µM) was 33.3% and the viability, T/C (second compound 0.316 µM, first compound 0.00999 µM) was 37.8%. It also gave a viability, T/C (second compound 0.316 µM, first compound 0.0316 µM) of 38.2%, a viability, T/C (second compound 0.316 µM, first compound 0.0999 µM) of 27.2% and a viability, T/C (second compound 0.316 µM, first compound 0.316 µM) of 15.7%. The viability, T/C (second compound 1 µM, first compound 0.000999 µM) was 65.9%, the viability, T/C (second compound 1 µM, first compound 0.00316 µM) was 35.5% and the viability, T/C (second compound 1 µM, first compound 0.00999 µM) was 38.1%. It also gave a viability, T/C (second compound 1 µM, first compound 0.0316 µM) of 40.8%, a viability, T/C (second compound 1 µM, first compound 0.0999 µM) of 25.5% and a viability, T/C (second compound 1 µM, first compound 0.316 µM) of 18.4%. The viability, T/C (second compound 3.16 µM, first compound 0.000999 µM) was 59.7%, the viability, T/C (second compound 3.16 µM, first compound 0.00316 µM) was 34.1% and the viability, T/C (second compound 3.16 µM, first compound 0.00999 µM) was 38.7%. It also gave a viability, T/C (second compound 3.16 µM, first compound 0.0316 µM) of 39.7%, a viability, T/C (second compound 3.16 µM, first compound 0.0999 µM) of 27.6% and a viability, T/C (second compound 3.16 µM, first compound 0.316 µM) of 15.7%. It also gave a viability, T/C (second compound 10 µM, first compound 0.000999 µM) of 56.5%, a viability, T/C (second compound 10 µM, first compound 0.00316 µM) of 31.1% and a viability, T/C (second compound 10 µM, first compound 0.00999 µM) of 36.3%. For the same molecule, the viability, T/C (second compound 10 µM, first compound 0.0316 µM) was 39%, the viability, T/C (second compound 10 µM, first compound 0.0999 µM) was 25.3% and the viability, T/C (second compound 10 µM, first compound 0.316 µM) was 15.8%.
